Laboratory results as given in US20230270731A1, “THERAPEUTIC COMPOUNDS AND COMPOSITIONS” (eXIthera Pharmaceuticals, Inc., priority 2019, published 2023).

Experiments:
Format in all cases: physicochemical
[1] = Compatibility with infusion bags; conditions: infus. bag1, t0 (Table 15)
[2] = Liquid injectable formulation: compounding, dilution into infusion vehicles, stability
Experimental: Compounding process for liquid formulations of Compound 1, designed for dilution into infusion vehicles was developed with 3.0 mg/mL of Compound 1 (or 3.13 mg/mL Compound 1 free base equivalent), phosphate buffer solution (PBS), and pH of 6.4-7.2. The compounding process was applied over a wide range of scales (25-500 mL).
The compounding of the drug product required a neutralization step using 0.5N sodium hydroxide solution and buffering with PBS to adjust the pH to values compatible with an IV infusion. The compounding process also required a filtration step, which also served as aseptic processing.
The compounded formulations were diluted into infusion vehicles: normal saline, 5% dextrose in water (D5W), and lactated Ringer's solution (buffered and unbuffered). The dilution into normal saline was carried out at 100-fold and 600-fold dilution.

[3] = Citrate and PBS vehicle formulations: pH, osmolality, concentration and recovery (HPLC)
Experimental: Two additional vehicles: sodium citrate (50 mM) and PBS (commercial) were formulated at different concentrations (Table 5, Table 6). Both vehicles at any concentration were compounded using the appropriate final sodium hydroxide concentration (0.1 M NaOH stock solution).
The PBS vehicle was compounded to two different pH-values while the citrate vehicle was compounded at different concentrations at the same target pH and tested for its stability over the course of 24 h (rt, exclusion from light). To evaluate the potential occurrence of particles from precipitation, a filtration step (0.2 μm micro centrifugal filters) was included at each time point.
In case of Sample #27 the amount of HCl (aq.) (0.1 M stock) added instead of the NaOH-solution was mixed with the 10×PBS buffer and added to the aqueous solution of Compound 1 in a single step.

[4] = Compatibility with infusion bags
Experimental: (§1) The compatibility of the reconstituted Compound 1 formulation with two infusion bags (different volumes and material) and two IV lines was tested (Table 13) at c(Compound 1)=0.1 mg/mL. After injection of the reconstituted drug product solution into infusion bags filled with NS, the recovery of Compound 1 was measured i) directly after mixing with the infusion vehicle (to, Table 14) and ii) after Δt=[…] of contact time with the infusion bag (Table 15). Additionally, storage in an infusion bag at ambient temperature and lighting conditions was assessed for Δt=6 h (Table 15). The average values of % recovery are relative to the reconstituted drug product that has not been in contact with the tested materials.

[5] = Compatibility with sterilization filters
Experimental: The feasibility of aseptic processing was evaluated and three different filter materials were tested for compatibility with the reconstituted Compound 1 formulation.
Filter compatibility of the reconstituted Compound 1 drug product was tested with different filter material (Table 17) composed of polyethersulfone (PES), nylon, and polyvinylidene fluoride (PVDF). For this a volume of Vfilter pass=10 mL was passed through the respective filter and the first as well as the last 10 vol % of the filtered volume were assayed for recovery of Compound 1 (Table 12).
The average values of % recovery are relative to the reconstituted drug product that has not been in contact with the tested materials.

[6] = Compatibility with IV systems
Experimental: as §1
The two IV systems were evaluated for compatibility with the reconstituted drug product solution by filling the IV lines with the diluted (NS) drug product solution and flowing Vflow through (FT)=101 mL through the respective IV system at a flow rate of 5 mL/min. Flow-through samples of Vsample=1 mL were collected i) immediately (VFT=0 mL), ii) after VFT=10 mL and iii) after VFT=[…]. Flow through samples were assayed for recovery of Compound 1 and compared to the infusion solution in the reservoir at t0 (Table 16).

With C[C@@H](NC(=O)N1C(=O)[C@H](Cc2ccnc(N)c2)[C@H]1C(=O)O)C1CCCCC1 [Compound 1, (2S,3R)-3-[(2-aminopyridin-4-yl)methyl]-1-{[(1R)-1-cyclohexylethyl]carbamoyl}-4-oxoazetidine-2-carboxylic acid] the “Avg. c(Compound 1, FB, Obs.)” value [1] was 0.09 mg/mL, the pH over time ([2]; diluted into normal saline, 0.03 mg/mL, ambient, 48 hours) was “constant” and the purity over time ([2]; diluted into normal saline, 0.03 mg/mL, ambient, over 48 hours) was “unchanged”. The “time stable at ambient temperature” value ([2]; formulation diluted into normal saline, 0.03 mg/mL) was “at least 48 hours”, the “loss of Compound 1 in filtration step of compounding” value ([2]; liquid formulation 3.0 mg/mL, PBS, pH 6.4-7.2) was “minimal loss or no loss” and the nominal degradation ([2]; liquid formulations, 2-8° C., at least one week) was < 4%. For the same compound, the “Stability of Compound 1 in citrate buffer” value ([3]; 24 h, ambient temperature) was “confirmed”, the “Precipitation of Compound 1” value ([3]; citrate buffer, within 24 h) was “not observed” and the “Avg. c(Compound 1, FB, Obs.)” value ([4]; Sample soln. (water), no contact with bags) was 0.09 mg/mL. For the same compound, the “Avg. c(Compound 1, FB, Obs.)” value ([4]; infus. bag1 (500 mL Viaflo, NS), t0, vs sample soln.) was 0.09 mg/mL, the “Avg. c(Compound 1, FB, Obs.)” value ([4]; infus. bag1, t = 10 min) was 0.09 mg/mL and the “Avg. c(Compound 1, FB, Obs.)” value ([4]; infus. bag1, t = 6 h, ambient) was 0.09 mg/mL. For the same compound, the “Avg. c(Compound 1, FB, Obs.)” value ([4]; infus. bag2 (50 mL Viaflex, NS), t0, vs sample soln.) was 0.08 mg/mL, the “Avg. c(Compound 1, FB, Obs.)” value ([4]; infus. bag2, t = 10 min) was 0.08 mg/mL and the “Avg. c(Compound 1, FB, Obs.)” value ([4]; infus. bag2, t = 6 h, ambient) was 0.08 mg/mL. The “adsorption of Compound 1 to infusion bag material” value ([4]; infusion bag #1 (Viaflo) compared with infusion bag #2 (Viaflex), immediately after contact) was “lesser extent of Compound 1 adsorption”, the “Avg. c(Compound 1, FB, Obs.)” value ([5]; Nylon filter, first 10% of 10 mL) was 0.94 mg/mL and the “Avg. c(Compound 1, FB, Obs.)” value ([5]; Nylon filter, last 10% of 10 mL) was 0.95 mg/mL. The “Avg. c(Compound 1, FB, Obs.)” value ([5]; PES filter, first 10% of 10 mL) was 0.94 mg/mL, the “Avg. c(Compound 1, FB, Obs.)” value ([5]; PES filter, last 10% of 10 mL) was 0.95 mg/mL and the “Avg. c(Compound 1, FB, Obs.)” value ([5]; PVDF filter, first 10% of 10 mL) was 0.95 mg/mL. The “Avg. c(Compound 1, FB, Obs.)” value ([5]; PVDF filter, last 10% of 10 mL) was 0.95 mg/mL, the “Avg. c(Compound 1, FB, Obs.)” value ([5]; Sample Soln. (pre-filtration)) was 0.95 mg/mL and the back-pressure during filtration ([5]; any of the tested filters) was “No increase”. The “Avg. c(Compound 1, FB, Obs.)” value ([6]; IV#1, VFT = 0 mL, 5 mL/min) was 0.09 mg/mL, the “Avg. c(Compound 1, FB, Obs.)” value ([6]; IV#1, VFT = 10 mL, 5 mL/min) was 0.09 mg/mL and the “Avg. c(Compound 1, FB, Obs.)” value ([6]; IV#1, VFT = 100 mL, 5 mL/min) was 0.09 mg/mL. For the same compound, the “Avg. c(Compound 1, FB, Obs.)” value ([6]; IV#2, VFT = 0 mL, 5 mL/min) was 0.09 mg/mL, the “Avg. c(Compound 1, FB, Obs.)” value ([6]; IV#2, VFT = 10 mL, 5 mL/min) was 0.09 mg/mL and the “Avg. c(Compound 1, FB, Obs.)” value ([6]; IV#2, VFT = 100 mL, 5 mL/min) was 0.09 mg/mL. For the same compound, the “Avg. c(Compound 1, FB, Obs.)” value ([6]; infus. bag, t0 (IV#1), reservoir) was 0.09 mg/mL and the “Avg. c(Compound 1, FB, Obs.)” value ([6]; infus. bag, t0 (IV#2), reservoir) was 0.09 mg/mL.
